According to patent US20160120802A1, “ORALLY-DISINTEGRATING OSELTAMIVIR TABLET AND METHOD FOR PREPARING THE SAME” (priority 2013, published 2016):

Tested on: pigeons
Assay: Pigeons vomiting model
Settings: intragastric, equivalent to 30 mg oseltamivir per kg
Description: 1. Experimental Animal: Healthy Pigeons (Both Males and Females were Operable), 350±50 g of Weights, Common Grades, and Purchased from a Breeding Base.
70 healthy pigeons were randomly divided into 7 groups and adaptively fed with normal diets for 1 week before the experiment. Diets were prohibited within 4 hrs before the experiment, the room temperature was maintained at between 22 and 24° C., and the feeding environment was kept clean and well ventilated. The pigeons were administered with drugs according to the following groups, the administration dosage corresponded to 30 mg oseltamivir per kg of the pigeon's weight, or the equivalent amount of the starch.
Contrast group A, one group, administered with the raw material of oseltamivir with a dosage equivalent to 30 mg of oseltamivir per kg of the pigeon's weight.
Contrast group B, one group, administered with the polyacrylic acid resin IV with a dosage equivalent to 30 mg of the starch per kg of the pigeon's weight.
Contrast group D, one group, administered with the commercial oseltamivir phosphate capsules manufactured by Roche with a dosage equivalent to 30 mg of oseltamivir per kg of the pigeon's weight.
Observation indexes: latent periods of vomiting (the period from the administration to the first vomiting), vomiting times (occurrences of the vomiting after the drug administration, each occurrence of the vomiting refers to the duration from neck stretching, mouth opening, shrugging, and abdominal contraction of the pigeons to recovery of the quiet state of the pigeons), and vomiting frequencies (referring to the times of neck stretching, mouth opening, shrugging, and abdominal contraction of the pigeons).
The pigeons in each group were taken drugs by intragastric administration with a dosage equivalent to 30 mg of oseltamivir per kg of the pigeon's weight. The latent periods of vomiting (min) after the intragastric administration, as well as the vomiting times and the vomiting frequency in 5 hrs after the intragastric administration were recorded.
In each group, the number of the vomiting pigeons (n) was calculated. For the vomiting pigeons (including vomiting with vomitus and dry vomiting in the absence of vomitus), the latent period of vomiting (min, x±s), the average vomit times, and the average vomit frequencies were calculated, and results were listed in the following table 2.

SMILES: CCOC(=O)C1=CC(OC(CC)CC)C(NC(C)=O)C(N)C1 (stereo not shown) [Contrast group A]
- Note (kind of vomiting): Seven times of vomiting
- Latent period for vomiting (vomiting pigeons, x ± s): 18.9 ± 5.4 min
- Average vomiting times (within 5 hrs) (within 5 hrs): 11.1
- Vomiting frequencies (within 5 hrs, x ± s): 15.8 ± 2.1 times
